Results taken from patent publication US20230398112A1, “SPRAY-DRIED METAL-ORGANIC FRAMEWORKS FOR TREATMENT AND/OR DIAGNOSIS OF PULMONARY DISEASE” (priority 2020, published 2023).

Experiments:
[1] = Thermogravimetric analysis (TGA), thermal stability; assay type: physicochemical; settings: under air at 3° C./min
Protocol: The loss of ca 10 wt. % below 100° C. is attributable to crystallized water leading to a dark blue anhydrous Cu(POA)2 crystalline phase, which can also be instantaneously obtained by exposing the hydrated phase to various organic solvents (i.e. MeOH, EtOH and DMF). […] Fourier-transform infrared spectroscopy (FTIR) analysis also clearly distinguishes between the two phases, as an absorption band attributed to coordinated water at 3.400 cm^−1 can be seen for the hydrated form in FIG. 1D.

Mtb = settings: delivered orally; cited from earlier work

O=C(O)c1cnccn1 [POA, pyrazinoic acid]
thermal stability (TGA) [1]: 100-200 °C
efficacy as TB therapy (Mtb): ineffective
